From US10570117B2, “Phenylimidazole compound” (Otsuka Pharmaceutical Factory, Inc., priority 2015, dated 2020)
≈ marks a conversion by molar mass, not a printed value. Where two headings read alike, the source gives them in different places.

Assays:
[1] = Solubility in gastric juice or intestinal juice model fluid (precipitation method using DMSO); format: physicochemical; conditions: room temperature
How it was run: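 Compound in DMSO added to JP disintegration test fluid 1 (pH 1.2) or fluid 2 (pH 6.8) and shaken 24 h at room temperature. After filtration, dissolved concentration (μg/mL) determined by UV absorbance against compound calibration curves.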

[2] = tested on: lipoprotein lipase (LPL) gene; assay: LPL mRNA elevating action (RT-PCR quantification of LPL mRNA in C2Cl2 cells); format: cell-based, mouse; conditions: Mus musculus, 24 h, compound 10 μM, ratio relative to the amount of LPL mRNA in cells with DMSO only, read-out: Rate of increase in LPL mRNA
Description: LPL mRNA Elevating Action
C2Cl2 cells (cell strain derived from striated muscle of mouse) were seeded in 96-well plates using a DMEM medium (Gibco) (containing 2 mM L-glutamine and 10% fetal bovine serum). After the cells were grown, the medium was removed. Subsequently, media obtained by adding dimethyl sulfoxide (DMSO) solutions of the compounds to the same medium as described above to a concentration of 10 μM were individually added to the cells and allowed to stand for 24 hours. The compound-containing media were removed, and the plates were washed with phosphate buffered saline. Thereafter, the remaining cells were lysed and subjected to a reverse transcription polymerase chain reaction (RT-PCR reaction) to obtain cDNA. Primers specific to lipoprotein lipase (LPL) gene, a necessary enzyme, etc., were added to the obtained cDNA. The mixture was set in 7500 Fast Real Time PCR System produced by Applied Biosystem to perform a PCR reaction (20 cycles) and the amount of LPL mRNA amplified was quantified. The LPL mRNA elevating action of each compound in the test cells was indicated as the ratio relative to the amount of LPL mRNA in cells allowed to stand in a medium to which only DMSO was added, with the amount being defined as 1.
As Comparative Example 1, a test was performed in the same manner as above, using a compound disclosed as the compound of Example 57 in WO2010/090200.

[3] = pH 1.2, simulated gastric fluid, kinetic from dmso stock, 1st fluid for Disintegration Test of Japanese Pharmacopoeia (pH: 1.2), read-out: Solubility (μg/mL) 1st fluid
[4] = pH 6.8, kinetic from dmso stock, 2nd fluid for Disintegration Test of Japanese Pharmacopoeia (pH: 6.8), read-out: Solubility (μg/mL) 2nd fluid

| SMILES | melting point | solubility at 24 h [1, 3] [µg/mL] | solubility at 24 h [1, 4] [µg/mL] | fold induction at 10 µM [2] |
| --- | --- | --- | --- | --- |
| COc1cc(OCc2ccc(C(F)(F)F)nc2)ccc1-c1c[nH]c(-c2ccc(F)nc2)n1 [Example 1, 2-fluoro-5-[5-[2-methoxy-4-((6-(trifluoromethyl)pyridin-3-yl)methoxy)phenyl]-1H-imidazol-2-yl]pyridine] | 165 to 166 °C | 20.7 (≈ 46.6 µM) | 1.7 (≈ 3.83 µM) | 2.97 |
| COc1cc(OCc2ccc(C(F)(F)F)nc2)ccc1-c1[nH]c(C2CCC(F)(F)CC2)nc1C [Example 6] | 167 to 169 °C | 91.5 (≈ 190 µM) | 47 (≈ 97.6 µM) | 4.44 |
| COc1cc(OCc2coc(C)n2)ccc1-c1cnc(C2CCC(F)(F)CC2)[nH]1 [Example 13] | 52 to 63 °C | > 81 | 74 (≈ 183 µM) | 2.31 |
| COc1cc(OCc2ccc(C(F)(F)F)nc2)c(C)cc1-c1cnc(-c2ccc(F)nc2)[nH]1 [Example 15] | 199 to 201 °C (dec.) | 7.8 (≈ 17 µM) | < 8.1 | 4.27 |
| COc1cc(-c2cnc(C3CCC(F)(F)CC3)[nH]2)ccc1OCc1ccc(C(F)(F)F)nc1 [Example 16] | 162 to 167 °C | 90.8 (≈ 194 µM) | 13.4 (≈ 28.7 µM) | 3.14 |
| COc1cc(OCc2ccc(C(F)(F)F)nc2)ccc1-c1cnc(C2CCC(F)(F)CC2)[nH]1 [Example 17] | 62 to 72 °C | > 93 | 3 (≈ 6.42 µM) | 3.2 |
| COc1cc(OCc2ccc(C(F)(F)F)cn2)ccc1-c1c[nH]c(-c2ccc(O)nc2)n1 [Example 18] | > 250 °C | 43.5 (≈ 98.3 µM) | 3.7 (≈ 8.36 µM) | 1.05 |
| COc1cc(OCc2coc(C)n2)ccc1-c1c[nH]c(-c2ccc(Cl)nc2)n1 [Example 19] | 168 to 171 °C | 76.7 (≈ 193 µM) | 2.2 (≈ 5.54 µM) | 1.7 |
| COCCOc1cc(OCc2ccc(C(F)(F)F)cn2)ccc1-c1c[nH]c(-c2ccc(Cl)nc2)n1 [Example 21] | 162 to 167 °C | 3 (≈ 5.94 µM) | < 1.8 | 1.99 |
| COc1cc(OCc2cnc(C)cn2)ccc1-c1c[nH]c(-c2ccc(Cl)nc2)n1 [Example 22] | 199 to 201 °C | 7.5 (≈ 18.4 µM) | 1.6 (≈ 3.92 µM) | 2.22 |
| COc1cc(OCc2ccc(C(F)(F)F)nc2)ccc1-c1nc(-c2ccc(F)cn2)[nH]c1C [Example 23] | 140 to 142 °C | 13.1 (≈ 28.6 µM) | < 1.6 | 2.94 |
| COc1cc(OCc2ccc(C(F)(F)F)nc2)ccc1-c1nc(-c2ccc(F)nc2)[nH]c1C [Example 24] | 169 to 171 °C | 53.6 (≈ 117 µM) | 1.8 (≈ 3.93 µM) | 2.94 |
| COc1cc(OCc2ccc(C(F)(F)F)cn2)ccc1-c1nc(-c2ccc(F)cn2)[nH]c1C [Example 25] | 180 to 182 °C | 83.1 (≈ 181 µM) | 1 (≈ 2.18 µM) | 2.68 |
| COc1cc(OCc2ccc(C(F)(F)F)nc2)ccc1-c1nc(-c2ccc(Cl)cn2)[nH]c1C [Example 27] | 157 to 159 °C | 5.9 (≈ 12.4 µM) | 0.5 (≈ 1.05 µM) | 2.45 |
| COc1cc(OCc2ccc(C(F)(F)F)cc2)ccc1-c1nc(-c2ccc(Cl)cn2)[nH]c1C [Example 34] | 170 to 173 °C | 17 (≈ 35.9 µM) | < 0.3 | 2.22 |
| COc1cc(OCc2ccc(C(F)(F)F)cn2)ccc1-c1c[nH]c(-c2ccc(S(C)(=O)=O)nc2)n1 [Example 38] | 213 to 214 °C | 60.5 (≈ 120 µM) | 0.9 (≈ 1.78 µM) | 2.25 |

| SMILES | melting point | solubility at 24 h [1, 3] [µg/mL] | solubility at 24 h [1, 4] [µg/mL] | fold induction at 10 µM [2] |
| --- | --- | --- | --- | --- |
| COc1cc(OCc2ccc(C(F)(F)F)cn2)ccc1-c1nc(-c2ccc(F)nc2)[nH]c1C [Example 39] | 141 to 150 °C | > 99 | 5.2 (≈ 11.3 µM) | 2.7 |
| COc1cc(OCc2ccc(C(F)(F)F)cn2)ccc1-c1c[nH]c(-c2cccc(N3CCCC3)n2)n1 [Example 40] | 100 to 108 °C | 6.9 (≈ 13.9 µM) | 2.8 (≈ 5.65 µM) | 0.93 |
| COc1cc(OCc2ccc(C(F)(F)F)cn2)ccc1-c1c[nH]c(-c2ccc(Cl)cn2)n1 [Example 42] | 147 to 150 °C | 8.6 (≈ 18.7 µM) | 2.3 (≈ 4.99 µM) | 2.27 |
| COc1cc(OCc2ncccc2C(F)(F)F)ccc1-c1c[nH]c(-c2ccc(Cl)nc2)n1 [Example 43] | 185 to 187 °C | 16.2 (≈ 35.2 µM) | 3.4 (≈ 7.38 µM) | 3.48 |
| COc1cc(OCc2ccc(S(=O)(=O)OC)cn2)ccc1-c1c[nH]c(-c2ccc(Cl)nc2)n1 [Example 44] | 232 to 235 °C (dec.) | 11.9 (≈ 24.4 µM) | 0.7 (≈ 1.44 µM) | 1.14 |
| COc1cc(OCc2ccncn2)ccc1-c1c[nH]c(-c2ccc(Cl)nc2)n1 [Example 45] | 221 to 224 °C | 27.8 (≈ 70.6 µM) | < 0.3 | 1.09 |
| COc1cc(-c2c[nH]c(-c3ccc(F)nc3)n2)cc(OC)c1OCc1ccc(C(F)(F)F)cn1 [Example 46] | 107 to 110 °C | 22.9 (≈ 48.3 µM) | < 9.1 | 2.49 |
| COc1cc(-c2c[nH]c(-c3ccc(Cl)nc3)n2)ccc1OCc1cccc(F)n1 [Example 47] | 185 to 187 °C | 5.1 (≈ 12.4 µM) | 0.3 (≈ 0.73 µM) | 3.26 |
| COc1cc(OCc2ccc(C(F)(F)F)nc2)ccc1-c1nc(-c2ccc(Cl)nc2)[nH]c1C [Example 49] | 196 to 199 °C | 8.7 (≈ 18.3 µM) | 0.9 (≈ 1.9 µM) | 3.46 |
| COc1cc(OCc2cccnc2C(F)(F)F)ccc1-c1[nH]c(-c2ccc(F)nc2)nc1Br [Example 278] | 176 to 179 °C | – | – | 2.95 |
| COc1cc(OCc2ncc(Cl)cc2C(F)(F)F)ccc1-c1[nH]c(-c2ccc(F)nc2)nc1Cl [Example 280] | 156 to 158 °C | – | – | 2.91 |
| COc1cc(OCc2ccc(F)cc2F)ccc1-c1[nH]c(-c2ccc(F)nc2)nc1Cl [Example 285] | 163 to 165 °C | – | – | 3.01 |
| COc1cc(OCc2cccnc2C(F)(F)F)ccc1-c1[nH]c(-c2ccc(F)nc2)nc1Cl [Example 287] | 165 to 171 °C | – | – | 3.53 |
| COc1cc(OCc2ccc(C(F)(F)F)nc2)ccc1-c1c(Br)nc(-c2ccc(Cl)nc2)n1C [Example 299] | 140 to 142 °C | – | – | 2.97 |
| Fc1ccc(-c2nc(F)c(-c3ccc(OCc4ncc(C(F)(F)F)cc4F)cc3)[nH]2)cn1 [Example 356] | 222 to 227 °C | – | – | 2.06 |
